Reference: ChEMBL document CHEMBL1130050, “Novel conformationally extended naphthalene-based inhibitors of farnesyltransferase” (J Med Chem, 1997)
Square brackets hold non-standard residues; d marks the D form. Peptide text beside a SMILES is read from it. Tic = O=C(O)[C@@H]1Cc2ccccc2CN1; NMeM = CN[C@@H](CCSC)C(=O)O; NMeV = CN[C@H](C(=O)O)C(C)C; Nle = CCCC[C@H](N)C(=O)O

How the values were obtained:
[1] = molecular target: T1, Protein farnesyltransferase (Homo sapiens, UniProt P49354+P49356); assay: Inhibition of [3H]FPP incorporation into human Ki-Ras by farnesyltransferase; format: protein-complex assay
[2] = molecular target: T1, Protein farnesyltransferase; assay: Percent inhibition of Ha-Ras protein processing in THAC (Ha-ras-transformed CCL39) cells at 10 uM; format: functional
[3] = molecular target: T1, Protein farnesyltransferase; assay: Ratio of FTase IC50 values compared to compound 8; format: protein-complex assay
[4] = molecular target: T1, Protein farnesyltransferase; assay: Ratio of FTase IC50 values compared to compound 5; format: protein-complex assay
[5] = molecular target: T1, Protein farnesyltransferase; assay: Inhibition of [3H]FPP incorporation into human Ha-Ras by farnesyltransferase; format: protein-complex assay

Row | Compound | inhibition [2] [%] | Ratio [4] | IC50 [5] [nM] | other results
1 | CSCC[C@H](NC(=O)c1cccc2cc(NC[C@@H](N)CS)ccc12)C(=O)O | 10 | – | – | IC50 [1]: 17.5 nM
2 | CSCC[C@H](NC[C@H](Cc1ccccc1)NC(=O)[C@@H](NC(=O)[C@@H](N)CS)C(C)C)C(=O)O | – | – | – | Ratio [3]: 60
3 | CSCC[C@H](NC(=S)[C@H](Cc1ccccc1)NC(=O)[C@@H](NC(=O)[C@@H](N)CS)C(C)C)C(=O)O | – | – | 17 | –
4 | COC(=O)[C@H](CCSC)NC(=O)[C@H](Cc1ccccc1)NC(=O)[C@@H](NC(=O)[C@@H](N)CS)C(C)C (H-CVFM-OMe) | – | – | 3400 | Ratio [3]: 92
5 | CSCC[C@H](NC(=O)c1cccc2c(NC[C@@H](N)CS)cccc12)C(=O)O | 0 | 1 | – | –
6 | CSCC[C@H](NC(=O)c1cccc2c(NC(=O)[C@@H](N)CS)cccc12)C(=O)O | 0 | – | – | –
7 | CSCC[C@H](NC(=O)[C@@H]1Cc2ccccc2CN1C(=O)[C@H](C(C)C)N(C)C(=O)[C@@H](N)CS)C(=O)O (H-C[NMeV][Tic]M-OH) | 0 | – | – | –
8 | CCCC[C@H](NC(=O)c1cccc2c(NC[C@@H](N)CS)cccc12)C(=O)O | – | 8 | 44 | –
9 | CSCC[C@H](/N=C(\S)[C@H](Cc1ccccc1)NC(=O)[C@@H](NC(=O)[C@@H](N)CS)C(C)C)C(=O)O | – | – | – | Ratio [3]: 0.5

Second part, led by results:

Row | inhibition [2] [%] | Ratio [4] | IC50 [5] [nM] | Compound | other results
10 | – | 37.5 | 210 | CSCC[C@@H](C(=O)O)N(C)C(=O)c1cccc2c(NC[C@@H](N)CS)cccc12 | –
11 | – | – | 1400 | CSCC[C@@H](C(=O)O)N(C)C(=O)[C@H](Cc1ccccc1)NC(=O)[C@@H](NC(=O)[C@@H](N)CS)C(C)C (H-CVF[NMeM]-OH) | Ratio [3]: 38
12 | – | – | 950 | CCCC[C@H](NC(=O)[C@H](Cc1ccccc1)NC(=O)[C@@H](NC(=O)[C@@H](N)CS)C(C)C)C(=O)O (H-CVF[Nle]-OH) | Ratio [3]: 26
13 | – | – | 4.8 | CSCC[C@H](NC(=S)c1cccc2c(NC[C@@H](N)CS)cccc12)C(=O)O | –
14 | > 50 | – | – | COC(=O)[C@H](CCSC)NC(=O)c1cccc2cc(NC[C@@H](N)CS)ccc12 | IC50 [1]: 500 nM
15 | – | 54 | – | CSCC[C@H](NCc1cccc2c(NC[C@@H](N)CS)cccc12)C(=O)O | –
16 | 20 | 58 | 325 | COC(=O)[C@H](CCSC)NC(=O)c1cccc2c(NC[C@@H](N)CS)cccc12 | –
17 | – | – | 60 | CSCC[C@H](NC(=O)c1cccc2cc(NC(=O)[C@@H](N)CS)ccc12)C(=O)O | IC50 [1]: 1250 nM
18 | – | 0.9 | – | CSCC[C@H](/N=C(\S)c1cccc2c(NC[C@@H](N)CS)cccc12)C(=O)O | –
